Where a name gives a salt, the structure may show the parent alone. Read-outs that look alike come from different tables or passages of the source.
Assays:
[1] = rcm bond, Grubbs 2nd generation catalyst
[2] = biological target: MCL-1 (Homo sapiens, UniProt Q07820); assay: Protein-protein interaction assay MCL-1/Noxa BH3 peptide (MCL-1 assay), TR-FRET; format: binding; conditions: MBP-MCL-1 / Noxa BH3-derived peptide, median
Procedure, shortened: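 MBP-MCL-1 (1 nM final) was preincubated 10 min at 22 °C with compounds (11 concentrations, 0.1 nM–20 μM, duplicates) in Tris pH 7 buffer with NaCl, KF, Tween-20, DTT and BGG. After 1 h at 22 °C in the dark plus overnight at 4 °C, anti-MBP Eu-cryptate/streptavidin-XL665 TR-FRET was read; IC50 came from a 4-parameter fit.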

[3] = system: SUDHL5; assay: Induction of caspase-3/7 activity (Caspase-Glo 3/7), SUDHL5; format: cell-based; conditions: caspase-3/7 induction, SUDHL5 cells, 3 h treatment, median
Procedure, shortened: (§1)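 Caspase-Glo 3/7 luminescence measured after 3 h compound exposure at 37 °C in SUDHL10 and SUDHL5 cells. EC50 values come from background-corrected signals, with curve bottom set to 1 and plateau set to maximal induction by the reference compound.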

[4] = system: SUDHL10; assay: Induction of caspase-3/7 activity (Caspase-Glo 3/7), SUDHL10; format: cell-based; conditions: caspase-3/7 induction, SUDHL10 cells, 3 h treatment, median
Procedure, shortened: as §1

[5] = system: SUDHL5; assay: Anti-proliferative effect (CellTiter-Glo, 72 h), SUDHL5; format: cell-based; conditions: SUDHL5 cells, antiproliferation, 72 h incubation, median, read-out: Antiproli SUDHL5 [M] (median)
Procedure, shortened: (§2)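 Anti-proliferative activity is derived from ATP-based luminescence (CellTiter-Glo) in cells exposed to compound for 72 h at 37 °C, set against a time zero plate read at seeding.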

[6] = system: SUDHL10; assay: Anti-proliferative effect (CellTiter-Glo, 72 h), SUDHL10; format: cell-based; conditions: SUDHL10 cells, antiproliferation, 72 h incubation, median, read-out: Antiproli SUDHL10 [M] (median)
Procedure, shortened: as §2

[7] = system: OPM2; assay: Anti-proliferative effect (CellTiter-Glo, 72 h), OPM2; format: cell-based; conditions: OPM2 cells, median, read-out: IC50 antiproliferation assay OPM2 [M] (median)
Procedure, shortened: as §2

[8] = system: A2780; assay: Anti-proliferative effect (CellTiter-Glo, 72 h), A2780; format: cell-based; conditions: A2780 cells, median, read-out: IC50 antiproliferation assay A2780 [M] (median)
Procedure, shortened: as §2

[9] = system: MV-4-11; assay: Anti-proliferative effect (CellTiter-Glo, 72 h), MV-4-11; format: cell-based; conditions: MV-4-11 cells, median, read-out: IC50 antiproliferation assay MV-4-11 [M] (median)
Procedure, shortened: as §2

[10] = system: SUDHL5; assay: Induction of cytotoxicity (CellTiter-Glo, 5 h), SUDHL5
[11] = system: SUDHL10; assay: Induction of cytotoxicity (CellTiter-Glo, 5 h), SUDHL10
[12] = read-out: Cytotox SUDHL5 [M] (median), SUDHL5 cells, cytotoxicity induction, CellTiter-Glo, 5 h incubation, median
[13] = read-out: Cytotox SUDHL10 [M] (median), SUDHL10 cells, cytotoxicity induction, CellTiter-Glo, 5 h incubation, median
[14] = Homo sapiens, SU-DHL-5, 5 h, read-out: Cytotox SUDHL5 [M] (median), SUDHL5 cells, cytotoxicity induction, CellTiter-Glo, 5 h incubation, median
[15] = Homo sapiens, SU-DHL10, 5 h, read-out: Cytotox SUDHL10 [M] (median), SUDHL10 cells, cytotoxicity induction, CellTiter-Glo, 5 h incubation, median

Sequence of MCL-1 (Q07820 whole entry): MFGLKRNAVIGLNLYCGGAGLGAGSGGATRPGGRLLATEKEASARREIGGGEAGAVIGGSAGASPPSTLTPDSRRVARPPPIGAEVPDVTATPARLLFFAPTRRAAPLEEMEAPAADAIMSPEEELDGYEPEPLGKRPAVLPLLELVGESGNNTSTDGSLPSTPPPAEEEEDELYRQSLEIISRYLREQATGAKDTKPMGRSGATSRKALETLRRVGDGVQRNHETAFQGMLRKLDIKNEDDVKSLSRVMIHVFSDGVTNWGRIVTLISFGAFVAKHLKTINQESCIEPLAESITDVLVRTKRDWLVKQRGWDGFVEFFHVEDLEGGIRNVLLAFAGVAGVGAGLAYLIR

| SMILES | IC50 [2] | EC50 [3] | EC50 [4] | IC50 [5] | IC50 [6] | IC50 [8] | IC50 ([8]; Homo sapiens, A2780, 72 h) | IC50 ([9]; Homo sapiens, MV4-11, 72 h) | IC50 ([7]; Homo sapiens, OPM-2, 72 h) | IC50 [10, 12] | IC50 [11, 13] | IC50 [7] | also measured |
| --- | --- | --- | --- | --- | --- | --- | --- | --- | --- | --- | --- | --- | --- |
| CCOC(=O)c1c(CCCOc2cccc3ccccc23)c2cccc3c2n1CC=CCN(Cc1ccccc1)c1c-3c(C)nn1C | – | – | – | – | – | – | – | – | – | – | – | – | ring closure, yield of all isomers ([1]; from C=CCN(Cc1ccccc1)c1c(-c2cccc3c(CCCOc4cccc5ccccc45)c(C(=O)OCC)n(CC=C)c23)c(C)nn1C, toluene, 6.11 mM, 90.0 °C, 5.5 h): 96.7% |
| CCOC(=O)c1c(CCCOc2cccc3ccccc23)c2cccc3c2n1CC=CCOCc1c-3c(COC(C)C)nn1C | – | – | – | – | – | – | – | – | – | – | – | – | ring closure, yield of all isomers ([1]; from C=CCOCc1c(-c2cccc3c(CCCOc4cccc5ccccc45)c(C(=O)OCC)n(CC=C)c23)c(COC(C)C)nn1C, dichloromethane, 77.5 mM, 25.0 °C, 24.0 h): 89.2% |
| Cc1c2c(nn1C)CN(C)CCCCn1c(C(=O)O)c(CCCOc3cccc4ccccc34)c3cccc-2c31 (single isomer, unassigned; enantiomer 1) [Example 068, 2,3,14-trimethyl-7-[3-(naphthalen-1-yloxy)propyl]-10,11,12,13,14,15-hexahydro-2H-pyrazolo[3′,4′:8,9][1,6]diazacycloundecino[10,11,1-hi]indole-8-carboxylic Acid (Enantiomer 1)] | 0.00442 µM | 1.63 µM | 11.9 µM | 2.53e-06 M | 1.87e-06 M | > 3.3e-05 M | 1.85e-05 M | 1.69e-05 M | 9.82e-06 M | 2.25e-06 M | 5.02e-06 M | – | – |
| Cn1nc(COc2ccc(N3CCOCC3)cc2)c2c1COCC=CCn1c(C(=O)O)c(CCCOc3cccc4ccccc34)c3cccc-2c31 (single isomer, unassigned; enantiomer 1) [Example 119, (+)-E/Z)-1-methyl-3-{[4-(morpholin-4-yl)phenoxy]methyl}-7-[3-(naphthalen-1-yloxy)propyl]-1,10,13,15-tetrahydropyrazolo[4′,3′:9,10][1,6]oxazacycloundecino[8,7,6-hi]indole-8-carboxylic Acid (Enantiomer 1)] | 0.0213 µM | – | – | – | – | – | 1.21e-05 M | 8.87e-06 M | 6.62e-06 M | – | – | – | EC50 ([3]; Homo sapiens, SU-DHL-5, 3 h): 19.5 µM; EC50 ([4]; Homo sapiens, SU-DHL10, 3 h): 22.5 µM; IC50 ([5]; Homo sapiens, SU-DHL-5, 72 h): 1.35e-05 M; IC50 ([6]; Homo sapiens, SU-DHL10, 72 h): 2e-05 M; IC50 [10, 14]: 2.85e-05 M; IC50 [11, 15]: > 3.3e-05 M |
| COCc1c2c(nn1C)COCCCCn1c(C(=O)O)c(CCCOc3cccc4ccccc34)c3cccc-2c31 (single isomer, unassigned; enantiomer 2) [Example 101, 3-(methoxymethyl)-2-methyl-7-[3-(naphthalen-1-yloxy)propyl]-2,10,11,12,13,15-hexahydropyrazolo[4′,3′:9,10][1,6]oxazacycloundecino[8,7,6-hi]indole-8-carboxylic acid-N-ethylethanamine Salt (Enantiomer 2)] | 0.00185 µM | 1.74 µM | 3.43 µM | 1.32e-06 M | 4.47e-06 M | 2.71e-05 M | – | 1.85e-06 M | 4.37e-06 M | 2.03e-06 M | 4e-06 M | – | – |
| Cn1nc(COc2ccc(N3CCOCC3)cc2)c2c1COCC=CCn1c(C(=O)O)c(CCCOc3cccc4ccccc34)c3cccc-2c31 (single isomer, unassigned; enantiomer 2) [Example 120, (−)-(E/Z)-1-methyl-3-{[4-(morpholin-4-yl)phenoxy]methyl}-7-[3-(naphthalen-1-yloxy)propyl]-1,10,13,15-tetrahydropyrazolo[4′,3′:9,10][1,6]oxazacycloundecino[8,7,6-hi]indole-8-carboxylic Acid (Enantiomer 2)] | 0.0272 µM | 31.4 µM | 18.4 µM | 1.08e-05 M | 1.4e-05 M | 1.11e-05 M | – | – | – | 3.21e-05 M | > 3.3e-05 M | 4.36e-06 M | IC50 [9]: 1.13e-05 M |
| CN1CCCn2c(C(=O)O)c(CCCOc3cccc4ccccc34)c3cccc(c32)-c2c(CNCC(F)(F)F)nn(C)c2C1 (single isomer, unassigned; enantiomer 2) [Example 131, 7,9-dimethyl-1-[3-(naphthalen-1-yloxy)propyl]-11-{[(2,2,2-trifluoroethyl)amino]methyl}-4,5,6,7,8,9-hexahydropyrazolo[3′,4′:7,8][1,5]diazecino[9,10,1-hi]indole-2-carboxylic acid-N-ethylethanamine Salt (Enantiomer 2)] | 0.0191 µM | 25.9 µM | 30.9 µM | 1.17e-05 M | 1.16e-05 M | 1.48e-05 M | – | 6.24e-06 M | – | 1.46e-05 M | 2.88e-05 M | 1.71e-05 M | – |
| Cn1nc(CN2CCOCC2)c2c1COCCCCn1c(C(=O)O)c(CCCOc3cccc4ccccc34)c3cccc-2c31 (single isomer, unassigned; enantiomer 2) [Example 137, 1-methyl-3-(morpholin-4-ylmethyl)-7-[3-(naphthalen-1-yloxy)propyl]-1,10,11,12,13,15-hexahydropyrazolo[4′,3′:9,10][1,6]oxazacycloundecino[8,7,6-hi]indole-8-carboxylic Acid (Enantiomer 2)] | 0.0107 µM | – | – | – | – | – | > 3.3e-05 M | 6.78e-06 M | > 3.3e-05 M | – | – | – | EC50 ([3]; Homo sapiens, SU-DHL-5, 3 h): 12.9 µM; EC50 ([4]; Homo sapiens, SU-DHL10, 3 h): 22.1 µM; IC50 ([5]; Homo sapiens, SU-DHL-5, 72 h): 2.67e-06 M; IC50 ([6]; Homo sapiens, SU-DHL10, 72 h): 5.9e-06 M; IC50 [10, 14]: 8.98e-06 M; IC50 [11, 15]: 3.06e-05 M |

Now from value to compound, other results behind:

| IC50 [2] | EC50 [3] | EC50 [4] | IC50 [5] | IC50 [6] | IC50 [8] | IC50 ([8]; Homo sapiens, A2780, 72 h) | IC50 ([9]; Homo sapiens, MV4-11, 72 h) | SMILES | IC50 ([7]; Homo sapiens, OPM-2, 72 h) | IC50 [10, 12] | IC50 [11, 13] | IC50 [7] | also measured |
| --- | --- | --- | --- | --- | --- | --- | --- | --- | --- | --- | --- | --- | --- |
| 0.00303 µM | 8.86 µM | – | – | – | – | 7.06e-06 M | 4.54e-06 M | CC(C)c1c2c(nn1C)CN(C)CCCn1c(C(=O)O)c(CCCOc3cccc4ccccc34)c3cccc-2c31 (single isomer, unassigned; enantiomer 1) [Example 114, 7,10-dimethyl-1-[3-(naphthalen-1-yloxy)propyl]-11-(propan-2-yl)-4,5,6,7,8,10-hexahydropyrazolo[3′,4′:7,8][1,5]diazecino[9,10,1-hi]indole-2-carboxylic acid (enantiomer 1)] | 1.1e-05 M | – | – | – | EC50 ([4]; Homo sapiens, SU-DHL10, 3 h): 17.7 µM; IC50 ([5]; Homo sapiens, SU-DHL-5, 72 h): 3.28e-06 M; IC50 ([6]; Homo sapiens, SU-DHL10, 72 h): 5.31e-06 M; IC50 [10, 14]: 6.61e-06 M; IC50 [11, 15]: 8.59e-06 M |
| 0.00151 µM | 2.52 µM | 2.62 µM | 7.67e-07 M | 1.02e-06 M | 6.24e-06 M | – | 7.2e-07 M | CCN(CC)S(=O)(=O)N1CCN(c2ccc(OCc3nn(C)c4c3-c3cccc5c(CCCOc6cccc7ccccc67)c(C(=O)O)n(c35)CCCCOC4)cc2)CC1 (single isomer, unassigned; enantiomer 2) [Example 1-5, 3-({4-[4-(diethysulfamoyl)piperazin-1-yl]phenoxy}methyl)-1-methyl-7-[3-(naphthalen-1-yloxy)propyl]-1,10,11,12,13,15-hexahydropyrazolo[4′,3′:9,10][1,6]oxazacycloundecino[8,7,6-hi]indole-8-carboxylic Acid (Enantiomer 2)] | – | 3.2e-06 M | 4.77e-06 M | 1.13e-06 M | – |
| 0.11 µM | 26.9 µM | > 33 µM | 2.56e-05 M | 3.25e-05 M | > 3.3e-05 M | – | – | Cc1c2c(nn1C)CN(C)CCCn1c(C(=O)O)c(CCCOc3cccc4ccccc34)c3cccc-2c31 (single isomer, unassigned; enantiomer 2) [Example 1-35, 7,10,11-trimethyl-1-[3-(naphthalen-1-yloxy)propyl]-4,5,6,7,8,10-hexahydropyrazolo[3′,4′:7,8][1,5]diazecino[9,10,1-hi]indole-2-carboxylic Acid-N-ethylethanamine Salt (Enantiomer 2)] | – | 2.02e-05 M | 1.18e-05 M | > 3.3e-05 M | IC50 [9]: 1.96e-05 M |
